Measurements: patent US20160143971A1, “COMBINATION THERAPY FOR PROSTATE CANCER USING BOTANICAL COMPOSITIONS AND DOCETAXEL” (GENYOUS BIOMED INTERNATIONAL, priority 2013, published 2016)

Assays:
[1] = system: androgen-independent metastatic prostate cancer; details: TAX 327 phase III study, patients; cited from earlier work
[2] = system: human prostate cancer cells in mouse xenografts; details: cited from earlier work
[3] = system: human prostate cancer cells in culture; details: cited from earlier work
PSA = details: cited from earlier work
[4] = cited from earlier work
[5] = system: LNCaP (androgen-sensitive) human prostate cancer tumors SRCX; test: Growth of LNCaP prostate cancer tumors SRCX in mice; assay type: in vivo; details: 3 weeks
Method: LNCaP prostate cancer was treated for 3 weeks according to the following regimen.

SMILES | overall response rate [1] [%] | anti-proliferative effect [2] | anti-proliferative effect [3] | PSA expression (PSA) | water solubility compared with paclitaxel [4] | inhibition of growth of LNCaP tumors ([5]; Aneustat 1652 mg/kg oral gavage QD x 21, Taxotere 10 mg/kg IP d=1, 8, 15, P<0.01) | efficacy in tumor size reduction (FIG. 1) ([5]; Aneustat 1652 mg/kg oral, Taxotere 10 mg/kg IP)
O=C1c2c(O)ccc(O)c2C(=O)c2c(NCCNCCO)ccc(NCCNCCO)c21 [mitoxantrone] | 7 |  |  |  |  |  | 
COc1cc(CNC(=O)CCCC/C=C/C(C)C)ccc1O [capsaicin] |  | profound anti-proliferative effect | profound anti-proliferative effect | down-regulates PSA expression |  |  | 
CC(=O)O[C@@]12CO[C@@H]1C[C@H](O)[C@@]1(C)C(=O)[C@H](O)C3=C(C)[C@@H](OC(=O)[C@H](O)[C@@H](NC(=O)OC(C)(C)C)c4ccccc4)C[C@@](O)([C@@H](OC(=O)c4ccccc4)[C@H]21)C3(C)C [Taxotere®, docetaxel] | 12 |  |  |  | more water soluble than paclitaxel | significantly inhibited growth | somewhat more effective
